Reference: article PMC6278366, “Synthesis and Evaluation of Anticancer Activities of Novel C-28 Guanidine-Functionalized Triterpene Acid Derivatives” (Molecules, 2018)
Structures can show the parent of a compound that is named as a salt. Where two headings read alike, the source gives them in different places.

How the values were obtained:
[1] = test system: K562 (chronic myeloid leukemia) cells; assay: Cytotoxicity assay (7-AAD viability, flow cytometry), K562; format: cell-based, human; settings: viable cells
Protocol: (§1) Cells (Jurkat, K562, U937, HeLa, HEK293 and normal Fibroblasts) were purchased from Russian Cell Culture Collection (Institute of Cytology of the Russian Academy of Sciences, Saint Petersburg, Russia) and cultured according to standard mammalian tissue culture protocols and sterile technique. Human cell lines HEK293 and HeLa were obtained from the HPA Culture Collections (Salisbury, UK). All cell lines used in the study were tested and shown to be free of mycoplasma and viral contamination.
(§2) Cells were maintained in RPMI 1640 (Jurkat, K562, U937) (Gibco, Thermo Fisher Scientific, Waltham, MA, USA) supplemented with 4 mM glutamine, 10% FBS (Sigma, Burlington, MA, USA) and 100 units/mL penicillin-streptomycin (Sigma). All types of cells were grown in an atmosphere of 5% CO2 at 37 °C. The cells were subcultures at 2–3 days intervals. Adherent cells (HEK293, HeLa, fibroblasts) were suspended using trypsin/EDTA and counted after they have reached 80% confluency. Cells were then seeded in 24 well plates at 5 × 10^4 cells per well and incubated overnight. Jurkat, K562, U937 cells were subcultured at 2 day intervals with a seeding density of 1 × 10^5 cells per 24 well plates in RPMI with 10% FBS.
(§3) Viability (Live/dead) assessment was performed by staining cells with 7-AAD (7-Aminoactinomycin D) (Biolegend, San Diego, CA, USA). Cells were treated of test compounds with six different concentrations (1, 5, 10, 15, 30 and 60 μM). After treatment, cells were harvested, washed 1–2 times with phosphate-buffered saline (PBS) and centrifuged at 400× g for 5 min. Cell pellets were resuspended in 200 μL of flow cytometry staining buffer (PBS without Ca^2+ and Mg^2+, 2.5% FBS) and stained with 5 μL of 7-AAD staining solutionfor 15 min at room temperature in the dark. Samples were acquired on NovoCyteTM 2000 FlowCytometry System (ACEA, San Diego, CA, USA) equipped with 488 nm argon laser. Detection of 7-AAD emission was collected through a 675/30 nm filter in FL4 channel.

normal human fibroblasts = assay: Cytotoxicity assay (7-AAD viability, flow cytometry), normal fibroblasts; format: cell-based; settings: mean ± SE, at least three experiments in duplicate
Protocol: as §1
(§4) HEK293, HeLa cell lines and fibroblasts were cultured as monolayers and maintained in Dulbecco’s modified Eagle’s medium (DMEM, Gibco BRL, Waltham, MA, USA) supplemented with 10% foetal bovine serum and 1% penicillin-streptomycin solution at 37 °C in a humidified incubator under a 5% CO2 atmosphere.
as §2
as §3, with “Cells were treated of test compounds with six different concentrations (1, 5, 10, 15, 30 and 60 μM).” left out

[2] = test system: Jurkat (T-lymphoblastic leukemia) cells; assay: cells; format: cell-based; settings: for IC50: viable cells; for SI (selectivity towards Jurkat cells): SI = IC50 fibroblasts/IC50 Jurkat cells
Protocol: as §1, §2, §3

[3] = test system: HEK293 (embryonic kidney) cells; assay: Cytotoxicity assay (7-AAD viability, flow cytometry), HEK293; format: cell-based, human; settings: at least three experiments in duplicate, viable cells
Protocol: as §1, §4, §2, §3

[4] = test system: HeLa (cervical cancer) cells; assay: Cytotoxicity assay (7-AAD viability, flow cytometry), HeLa; format: cell-based, human; settings: mean ± SE, at least three experiments in duplicate, viable cells
Protocol: as §1, §4, §2, §3

[5] = test system: U937 (histiocytic lymphoma) cells; assay: Cytotoxicity assay (7-AAD viability, flow cytometry), U937; format: cell-based, human
Protocol: as §1, §2, §3

[6] = Homo sapiens, HEK293, mean ± SE
[7] = read-out: IC50 U937; mean ± SE, at least three experiments in duplicate; viable cells
[8] = Homo sapiens, Jurkat, mean ± SE, at least three experiments in duplicate, read-out: IC50 Jurkat
[9] = Homo sapiens, K562, mean ± SE, at least three experiments in duplicate, read-out: IC50 K562
[10] = Homo sapiens, U-937, mean ± SE, at least three experiments in duplicate; viable cells; read-out: IC50 U937

Question: Which IC50 ([1]; Homo sapiens, K562, read-out: IC50 K562, mean ± SE, at least three experiments in duplicate) does the source give for `CC(=O)O[C@H]1CC[C@@]2(C)C(CC[C@]3(C)C2CCC2C4C(C(C)C)CC[C@]4(C(=O)NCCN(CCNC(=N)N)CCNC(=N)N)CC[C@]23C)C1(C)C` (single isomer, unassigned) [Compound 12a, 3β-N-[2-(N,N′-bis-Ethylgyanidine)-aminoethyl]-3-O-acetyl-lupane-28-amide trifluoroacetate] here?
Answer: 89 ± 0.18 µM

Question: What about the IC50 (normal human fibroblasts; Homo sapiens, Fibroblast) of the same molecule?
Answer: 149 ± 0.43 µM

Question: What about the IC50 ([2]; Homo sapiens, Jurkat, read-out: IC50 Jurkat, mean ± SE, at least three experiments in duplicate) of the same molecule?
Answer: 22 ± 0.21 µM

Question: What about the IC50 [3, 6] of the same molecule?
Answer: 112 ± 0.19 µM

Question: And the IC50 ([4]; Homo sapiens, HeLa)?
Answer: 101 ± 0.22 µM

Question: And the IC50 [5, 7]?
Answer: 28 ± 0.25 µM

Question: How did the IC50 ([1]; read-out: IC50 K562, mean ± SE, at least three experiments in duplicate) turn out when `CC(=O)O[C@H]1CC[C@@]2(C)C(CC[C@]3(C)C2CCC2C4C(C(C)C)CC[C@]4(C(=O)NCCN(CCNC(=N)N)CCNC(=N)N)CC[C@]23C)C1(C)C` (single isomer, unassigned) [Compound 12b, 3β-N-[2-(N,N′-bis-Ethylgyanidine)-aminoethyl]-3-O-acetyl-lupane-28-amide dihydrochloride] was run?
Answer: 52 ± 0.26 µM

Question: And the IC50 (normal human fibroblasts)?
Answer: 106 ± 0.23 µM

Question: And the IC50 ([2]; read-out: IC50 Jurkat, mean ± SE, at least three experiments in duplicate)?
Answer: 14 ± 0.37 µM

Question: What about the IC50 ([3]; mean ± SE) of the same molecule?
Answer: 68 ± 0.29 µM

Question: And the IC50 [4]?
Answer: 72 ± 0.34 µM

Question: And the IC50 [5, 7]?
Answer: 13 ± 0.06 µM

Question: What does the source list for `CC(=O)O[C@H]1CC[C@@]2(C)C(CC[C@]3(C)C2CC=C2C4[C@@H](C)[C@H](C)CC[C@]4(C(=O)OCC(CO)(CO)NC(=N)N)CC[C@]23C)C1(C)C` (single isomer, unassigned) [Compound 18b, 3β-[2-Guanidine-3-hydroxy-2-(hydroxymethyl)propyl]-3-O-acetyl-urs-12-en-28-oate trifluoroacetate]?
Answer: IC50 ([1]; mean ± SE, at least three experiments in duplicate, read-out: IC50 K562): 40 ± 0.29 µM; IC50 (normal human fibroblasts; Homo sapiens, Fibroblast): 47 ± 0.15 µM; IC50 [2, 8]: 6.8 ± 0.32 µM; IC50 [3, 6]: 13 ± 0.19 µM; IC50 ([4]; Homo sapiens, HeLa): 11 ± 0.27 µM; IC50 ([5]; mean ± SE, at least three experiments in duplicate; viable cells; read-out: IC50 U937): 2.1 ± 0.41 µM

Question: With `CC(C)C1CC[C@]2(C(=O)NCCCCNC(=N)N)CC[C@]3(C)C(CCC4[C@@]5(C)CCC(=O)C(C)(C)C5CC[C@]43C)C12` (stereo partly drawn) [Compound 9b, N-(4-Butylgyanidine)-3-oxolupane-28-amide dihydrochloride] as the molecule, how does the IC50 [1, 9] read?
Answer: 57 ± 0.36 µM

Question: What about the IC50 (normal human fibroblasts; Homo sapiens, Fibroblast) of the same molecule?
Answer: 179 ± 0.43 µM

Question: And the “increase in cytotoxic activity against Jurkat cells in comparison with dihydrobetulinic acid 2” value [2]?
Answer: approximately 3 fold

Question: What about the IC50 [2, 8] of the same molecule?
Answer: 21 ± 0.24 µM

Question: And the “SI (selectivity towards Jurkat cells)” value [2]?
Answer: 8.5

Question: What about the IC50 [3, 6] of the same molecule?
Answer: 92 ± 0.34 µM

Question: What about the IC50 ([4]; Homo sapiens, HeLa) of the same molecule?
Answer: 81 ± 0.19 µM

Question: What about the IC50 [5, 10] of the same molecule?
Answer: 14 ± 0.16 µM

Question: With `CC(=O)O[C@H]1CC[C@@]2(C)C(CC[C@]3(C)C2CCC2C4C(C(C)C)CC[C@]4(C(=O)NCCNC(=N)N)CC[C@]23C)C1(C)C` (stereo partly drawn) [Compound 10b, 3β-N-(2-Ethylgyanidine)-3-O-acetyl-lupane-28-amide hydrochloride] as the molecule, how does the IC50 [1, 9] read?
Answer: 98 ± 0.35 µM

Question: And the IC50 (normal human fibroblasts; Homo sapiens, Fibroblast)?
Answer: 354 ± 0.46 µM

Question: What about the IC50 [2, 8] of the same molecule?
Answer: 67 ± 0.21 µM

Question: What about the IC50 [3, 6] of the same molecule?
Answer: 128 ± 0.35 µM

Question: And the IC50 ([4]; Homo sapiens, HeLa)?
Answer: 152 ± 0.49 µM

Question: What about the IC50 [5, 10] of the same molecule?
Answer: 82 ± 0.14 µM

Question: `CC(=O)O[C@H]1CC[C@@]2(C)C(CC[C@]3(C)C2CCC2C4C(C(C)C)CC[C@]4(C(=O)NCCCCNC(=N)N)CC[C@]23C)C1(C)C` (stereo partly drawn) [Compound 11b, 3β-N-(4-Butylgyanidine)-3-O-acetyl-lupane-28-amide hydrochloride] was tested. Which IC50 [1, 9] did it give?
Answer: 55 ± 0.38 µM

Question: And the IC50 (normal human fibroblasts; Homo sapiens, Fibroblast)?
Answer: 117 ± 0.38 µM

Question: What about the “increase in cytotoxic activity against Jurkat cells in comparison with dihydrobetulinic acid 2” value [2] of the same molecule?
Answer: approximately 3 fold

Question: And the IC50 [2, 8]?
Answer: 16 ± 0.18 µM

Question: And the “SI (selectivity towards Jurkat cells)” value [2]?
Answer: 7.3

Question: What about the IC50 [3, 6] of the same molecule?
Answer: 98 ± 0.27 µM

Question: And the IC50 ([4]; Homo sapiens, HeLa)?
Answer: 106 ± 0.51 µM

Question: And the IC50 [5, 10]?
Answer: 63 ± 0.29 µM

Question: With `CC(=O)O[C@H]1CC[C@@]2(C)C(CC[C@]3(C)C2CCC2C4C(C(C)C)CC[C@]4(C(=O)NCCCN4CCN(CCCNC(=N)N)CC4)CC[C@]23C)C1(C)C` (stereo partly drawn) [Compound 13a, 3β-N-{[3-(3-Propylguanidine)piperazinyl]propyl}-3-O-acetyl-lupane-28-amide trifluoroacetate] as the molecule, how does the IC50 [1, 9] read?
Answer: 11 ± 0.33 µM

Question: What about the IC50 (normal human fibroblasts; Homo sapiens, Fibroblast) of the same molecule?
Answer: 104 ± 0.26 µM

Question: And the IC50 [2, 8]?
Answer: 24 ± 0.27 µM

Question: And the IC50 [3, 6]?
Answer: 74 ± 0.15 µM

Question: And the IC50 ([4]; Homo sapiens, HeLa)?
Answer: 79 ± 0.29 µM

Question: What about the IC50 [5, 10] of the same molecule?
Answer: 18 ± 0.21 µM

Question: Which results are given for `CC(C)C1CC[C@]2(C(=O)NCCCCNC(=N)N)CC[C@]3(C)C(CCC4[C@@]5(C)CC[C@H](O)C(C)(C)C5CC[C@]43C)C12` (stereo partly drawn) [Compound 14, 3β-N-(4-Butylgyanidine)-3-hydroxy-lupane-28-amide]?
Answer: IC50 [1, 9]: 36 ± 0.42 µM; IC50 (normal human fibroblasts; Homo sapiens, Fibroblast): 96 ± 0.17 µM; increase in cytotoxic activity against Jurkat cells in comparison with dihydrobetulinic acid 2 [2]: approximately 3 fold; IC50 [2, 8]: 17 ± 0.34 µM; SI (selectivity towards Jurkat cells) [2]: 5.6; IC50 [3, 6]: 59 ± 0.21 µM; IC50 ([4]; Homo sapiens, HeLa): 62 ± 0.24 µM; IC50 [5, 10]: 20 ± 0.12 µM

Question: What does the source list for `CC(=O)O[C@H]1CC[C@@]2(C)C(CC[C@]3(C)C2CC=C2C4CC(C)(C)CC[C@]4(C(=O)OCC(CO)(CO)NC(=N)N)CC[C@]23C)C1(C)C` (stereo partly drawn) [Compound 20b, 3β-[2-Guanidine-3-hydroxy-2-(hydroxymethyl)propyl]-3-O-acetyl-olean-12-en-28-oate trifluoroacetate]?
Answer: IC50 [1, 9]: 20 ± 0.14 µM; IC50 (normal human fibroblasts; Homo sapiens, Fibroblast): 49 ± 0.25 µM; IC50 [2, 8]: 6.7 ± 0.15 µM; IC50 [3, 6]: 12 ± 0.23 µM; IC50 ([4]; Homo sapiens, HeLa): 13 ± 0.41 µM; IC50 [5, 10]: 6.1 ± 0.43 µM

Question: What does the source list for `CC1(C)CC[C@]2(C(=O)O)CC[C@]3(C)C(=CC[C@@H]4[C@@]5(C)CC[C@H](O)C(C)(C)[C@@H]5CC[C@]43C)[C@@H]2C1` [OA, oleanolic acid, reference compound]?
Answer: IC50 [1, 9]: 235 ± 0.24 µM; IC50 (normal human fibroblasts; Homo sapiens, Fibroblast): 694 ± 0.17 µM; IC50 [2, 8]: 271 ± 0.19 µM; IC50 [3, 6]: 247 ± 0.27 µM; IC50 ([4]; Homo sapiens, HeLa): 258 ± 0.31 µM; IC50 [5, 10]: 186 ± 0.18 µM

Question: Which IC50 [1, 9] does the source give for `C[C@H]1[C@H](C)CC[C@]2(C(=O)O)CC[C@]3(C)C(=CC[C@@H]4[C@@]5(C)CC[C@H](O)C(C)(C)[C@@H]5CC[C@]43C)[C@H]12` [UA, ursolic acid, reference compound] here?
Answer: 68 ± 0.11 µM

Question: And the IC50 (normal human fibroblasts; Homo sapiens, Fibroblast)?
Answer: 324 ± 0.16 µM

Question: And the IC50 [2, 8]?
Answer: 23 ± 0.34 µM

Question: What about the IC50 [3, 6] of the same molecule?
Answer: 96 ± 0.22 µM

Question: What about the IC50 ([4]; Homo sapiens, HeLa) of the same molecule?
Answer: 88 ± 0.35 µM

Question: What about the IC50 [5, 10] of the same molecule?
Answer: 17 ± 0.12 µM
